Results taken from patent US20090304692A1, “TRIAZINE COMPOUNDS AS PI3 KINASE AND MTOR INHIBITORS” (Wyeth, priority 2008, published 2009).
Read-outs that look alike come from different tables or passages of the source.

Assays:
[1] = test system: human breast MDA-MB-361 tumor cell line; test: In vitro cell culture growth assay (MTS), MDA-MB-361; type: cell-based; conditions: Homo sapiens, MTS cell growth assay, three days after drug treatment, MDA-MB-361 cells, read-out: IC50 MDA-MB-361
PI3K-α = PI3K-α (Homo sapiens, UniProt P42336); test: PI3K-alpha fluorescence polarization assay; conditions: read-out: IC50 PI3Kα
Human mTOR (FLAG-TOR) = Human mTOR (FLAG-TOR) (Homo sapiens, UniProt P42345); test: mTOR kinase assay (DELFIA format, purified enzyme); type: biochemical; conditions: read-out: IC50 mTOR
PI3K-γ = PI3K-γ (Homo sapiens, UniProt P48736); test: PI3K-gamma fluorescence polarization assay; conditions: read-out: IC50 PI3Kγ
[2] = test system: human prostate PC3-mm2 tumor cell line; test: In vitro cell culture growth assay (MTS), PC3-mm2; type: cell-based; conditions: Homo sapiens, PC3MM2, 72 h, MTS cell growth assay, three days after drug treatment, PC3-mm2 cells; read-out: IC50 PC3-mm2

Chain of Human mTOR (FLAG-TOR) (P42345 1360-2549 limits assumed): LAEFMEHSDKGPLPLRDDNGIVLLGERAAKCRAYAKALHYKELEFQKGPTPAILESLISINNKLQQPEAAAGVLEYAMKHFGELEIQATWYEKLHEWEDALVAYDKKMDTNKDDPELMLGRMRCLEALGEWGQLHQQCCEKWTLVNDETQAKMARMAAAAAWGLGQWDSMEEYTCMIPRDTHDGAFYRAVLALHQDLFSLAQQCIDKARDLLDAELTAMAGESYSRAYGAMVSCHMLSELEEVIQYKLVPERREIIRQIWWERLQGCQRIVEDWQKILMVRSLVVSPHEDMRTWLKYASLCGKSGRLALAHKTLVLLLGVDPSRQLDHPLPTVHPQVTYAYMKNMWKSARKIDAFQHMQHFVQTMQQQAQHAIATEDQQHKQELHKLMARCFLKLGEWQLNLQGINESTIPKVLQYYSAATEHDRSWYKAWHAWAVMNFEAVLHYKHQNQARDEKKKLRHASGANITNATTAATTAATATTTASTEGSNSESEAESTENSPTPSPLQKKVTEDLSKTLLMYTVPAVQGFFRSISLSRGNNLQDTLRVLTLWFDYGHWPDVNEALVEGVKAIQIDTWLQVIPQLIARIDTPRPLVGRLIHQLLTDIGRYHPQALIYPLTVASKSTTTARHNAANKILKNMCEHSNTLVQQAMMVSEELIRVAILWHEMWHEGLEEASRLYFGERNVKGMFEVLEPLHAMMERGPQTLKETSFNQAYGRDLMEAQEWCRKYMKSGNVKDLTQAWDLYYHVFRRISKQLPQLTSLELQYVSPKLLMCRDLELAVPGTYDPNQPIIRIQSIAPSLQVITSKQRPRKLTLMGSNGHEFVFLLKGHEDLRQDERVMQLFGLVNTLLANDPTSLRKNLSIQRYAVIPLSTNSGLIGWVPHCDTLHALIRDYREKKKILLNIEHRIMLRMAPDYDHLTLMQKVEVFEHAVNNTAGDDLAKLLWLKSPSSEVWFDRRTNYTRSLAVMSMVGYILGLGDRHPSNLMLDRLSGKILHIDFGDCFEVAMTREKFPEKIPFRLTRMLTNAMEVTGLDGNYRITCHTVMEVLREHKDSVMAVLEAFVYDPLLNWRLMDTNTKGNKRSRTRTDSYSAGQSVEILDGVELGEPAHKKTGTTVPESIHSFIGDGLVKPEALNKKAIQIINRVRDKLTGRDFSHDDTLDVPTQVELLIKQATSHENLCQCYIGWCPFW
Chain of PI3K-α (P42336 whole entry, species assumed): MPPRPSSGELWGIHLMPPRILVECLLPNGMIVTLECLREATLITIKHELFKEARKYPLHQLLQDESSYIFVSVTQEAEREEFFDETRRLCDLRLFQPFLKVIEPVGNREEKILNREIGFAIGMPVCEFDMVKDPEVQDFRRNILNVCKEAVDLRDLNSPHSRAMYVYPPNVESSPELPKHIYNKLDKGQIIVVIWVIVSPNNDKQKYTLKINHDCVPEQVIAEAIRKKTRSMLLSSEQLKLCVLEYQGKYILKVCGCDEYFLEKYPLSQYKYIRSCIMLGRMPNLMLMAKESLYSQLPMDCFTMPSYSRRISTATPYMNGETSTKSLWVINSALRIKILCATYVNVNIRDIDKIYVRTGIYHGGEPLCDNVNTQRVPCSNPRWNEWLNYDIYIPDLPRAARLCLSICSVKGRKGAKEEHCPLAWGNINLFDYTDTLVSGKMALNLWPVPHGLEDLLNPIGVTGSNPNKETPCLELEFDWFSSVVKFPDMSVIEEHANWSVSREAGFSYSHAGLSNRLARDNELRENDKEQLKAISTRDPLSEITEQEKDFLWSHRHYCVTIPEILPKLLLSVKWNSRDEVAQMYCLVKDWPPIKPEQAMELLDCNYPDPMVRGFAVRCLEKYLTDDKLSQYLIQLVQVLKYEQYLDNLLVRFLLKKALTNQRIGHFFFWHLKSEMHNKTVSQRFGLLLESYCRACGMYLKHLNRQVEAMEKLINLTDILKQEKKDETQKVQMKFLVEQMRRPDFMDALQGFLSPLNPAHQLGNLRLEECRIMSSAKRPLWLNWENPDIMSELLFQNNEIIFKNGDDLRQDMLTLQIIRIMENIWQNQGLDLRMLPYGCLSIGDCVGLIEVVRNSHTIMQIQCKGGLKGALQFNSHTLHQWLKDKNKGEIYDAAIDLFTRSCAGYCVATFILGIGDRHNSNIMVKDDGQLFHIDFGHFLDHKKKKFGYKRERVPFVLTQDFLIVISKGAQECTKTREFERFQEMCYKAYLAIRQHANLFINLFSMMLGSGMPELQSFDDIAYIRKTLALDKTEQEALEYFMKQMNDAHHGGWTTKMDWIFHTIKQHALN
Chain of PI3K-α (P27986 whole entry partner, species assumed): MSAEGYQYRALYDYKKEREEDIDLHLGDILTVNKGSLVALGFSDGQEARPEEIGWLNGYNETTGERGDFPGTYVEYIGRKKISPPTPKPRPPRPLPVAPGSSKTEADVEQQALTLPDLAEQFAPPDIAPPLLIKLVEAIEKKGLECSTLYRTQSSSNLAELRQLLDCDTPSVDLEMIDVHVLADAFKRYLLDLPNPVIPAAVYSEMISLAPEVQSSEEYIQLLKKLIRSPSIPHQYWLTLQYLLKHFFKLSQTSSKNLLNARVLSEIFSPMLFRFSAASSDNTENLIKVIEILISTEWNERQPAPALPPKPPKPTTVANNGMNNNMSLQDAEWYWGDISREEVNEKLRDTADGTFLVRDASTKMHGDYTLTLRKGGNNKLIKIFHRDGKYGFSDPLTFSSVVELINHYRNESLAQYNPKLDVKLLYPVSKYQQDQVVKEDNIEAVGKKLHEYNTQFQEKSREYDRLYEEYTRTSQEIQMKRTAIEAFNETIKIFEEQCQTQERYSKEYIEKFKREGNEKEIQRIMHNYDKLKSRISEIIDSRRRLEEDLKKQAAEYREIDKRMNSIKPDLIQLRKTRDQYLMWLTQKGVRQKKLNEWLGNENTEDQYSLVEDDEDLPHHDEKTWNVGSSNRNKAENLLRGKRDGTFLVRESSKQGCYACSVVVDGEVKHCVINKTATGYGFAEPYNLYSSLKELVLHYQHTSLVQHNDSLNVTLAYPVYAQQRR
Chain of PI3K-γ (P48736 whole entry, species assumed): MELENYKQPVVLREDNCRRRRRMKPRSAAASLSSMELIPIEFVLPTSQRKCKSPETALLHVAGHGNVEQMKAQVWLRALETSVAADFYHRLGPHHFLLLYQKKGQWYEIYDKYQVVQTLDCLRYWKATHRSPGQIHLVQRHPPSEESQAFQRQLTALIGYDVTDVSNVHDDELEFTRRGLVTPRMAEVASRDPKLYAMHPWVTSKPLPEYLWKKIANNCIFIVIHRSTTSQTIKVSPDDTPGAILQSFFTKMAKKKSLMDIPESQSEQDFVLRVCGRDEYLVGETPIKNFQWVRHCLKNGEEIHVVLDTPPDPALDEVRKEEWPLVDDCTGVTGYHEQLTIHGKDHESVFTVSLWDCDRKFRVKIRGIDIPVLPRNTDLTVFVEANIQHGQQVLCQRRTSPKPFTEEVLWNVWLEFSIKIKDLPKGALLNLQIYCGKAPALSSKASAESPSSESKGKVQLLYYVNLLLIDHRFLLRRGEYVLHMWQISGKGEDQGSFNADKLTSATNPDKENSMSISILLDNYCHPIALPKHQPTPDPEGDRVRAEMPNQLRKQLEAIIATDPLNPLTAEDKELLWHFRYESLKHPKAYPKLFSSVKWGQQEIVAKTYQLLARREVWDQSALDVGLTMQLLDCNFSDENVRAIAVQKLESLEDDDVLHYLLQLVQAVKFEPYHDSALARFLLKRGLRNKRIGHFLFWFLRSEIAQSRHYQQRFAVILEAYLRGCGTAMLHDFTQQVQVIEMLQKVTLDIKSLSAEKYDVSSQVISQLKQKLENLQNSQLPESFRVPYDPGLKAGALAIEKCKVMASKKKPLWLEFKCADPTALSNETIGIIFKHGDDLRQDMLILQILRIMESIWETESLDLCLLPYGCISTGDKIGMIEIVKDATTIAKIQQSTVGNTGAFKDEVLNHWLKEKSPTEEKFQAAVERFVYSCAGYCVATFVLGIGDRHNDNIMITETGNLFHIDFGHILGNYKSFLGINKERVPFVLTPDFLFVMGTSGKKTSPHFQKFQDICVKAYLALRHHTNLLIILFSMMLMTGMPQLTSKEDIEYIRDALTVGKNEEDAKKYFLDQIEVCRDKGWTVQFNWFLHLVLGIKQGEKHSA

SMILES	IC50 ([1]; 72 h) [nM]	IC50 (PI3K-α) [nM]	IC50 (Human mTOR (FLAG-TOR)) [nM]	IC50 (PI3K-γ) [nM]	IC50 [2] [nM]	IC50 ([1]; MDA-MB-361, 72 h) [nM]
CC(C)(C)OC(=O)N1CCC(Oc2nc(-c3ccc(NC(=O)Nc4ccncc4)cc3)nc(N3CCOCC3)n2)CC1 [Example 691, tert-butyl 4-[(4-morpholin-4-yl-6-{4-[(pyridin-4-ylcarbamoyl)amino]phenyl}-1,3,5-triazin-2-yl)oxy]piperidine-1-carboxylate]	52	6	1.35	199	131	
NS(=O)(=O)N1CCC(Oc2nc(-c3ccc(NC(=O)Nc4ccncc4)cc3)nc(N3CCOCC3)n2)CC1 [Example 692, 4-[(4-morpholin-4-yl-6-{4-[(pyridin-4-ylcarbamoyl)amino]phenyl}-1,3,5-triazin-2-yl)oxy]piperidine-1-sulfonamide]	97	3.2	3.75	29	326	
CN(C)CCNC(=O)c1ccc(NC(=O)Nc2ccc(-c3nc(N4CCOCC4)nc(N4C5CCC4COC5)n3)cc2)cc1 [Example 694, N-[2-(dimethylamino)ethyl]-4-[({4-[4-morpholin-4-yl-6-(3-oxa-8-azabicyclo[3.2.1]oct-8-yl)-1,3,5-triazin-2-yl]phenyl}carbamoyl)amino]benzamide]	< 3	2	0.245	40	11	
CN(C)C(=O)c1ccc(NC(=O)Nc2ccc(-c3nc(N4CCOCC4)nc(N4C5CCC4COC5)n3)cc2)cc1 [Example 695, N,N-dimethyl-4-[({4-[4-morpholin-4-yl-6-(3-oxa-8-azabicyclo[3.2.1]oct-8-yl)-1,3,5-triazin-2-yl]phenyl}carbamoyl)amino]benzamide]	6	4	0.28	70.5	7	
CNC(=O)c1ccc(NC(=O)Nc2ccc(-c3nc(N4CCOCC4)nc(N4C5CCC4COC5)n3)cc2)cc1 [Example 696, N-methyl-4-[({4-[4-morpholin-4-yl-6-(3-oxa-8-azabicyclo[3.2.1]oct-8-yl)-1,3,5-triazin-2-yl]phenyl}carbamoyl)amino]benzamide]		4.5	0.275	73.5	13	13
CN1CCN(C(=O)c2ccc(NC(=O)Nc3ccc(-c4nc(N5CCOCC5)nc(N5C6CCC5COC6)n4)cc3)cc2)CC1 [Example 697, 1-{4-[(4-methylpiperazin-1-yl)carbonyl]phenyl}-3-{4-[4-morpholin-4-yl-6-(3-oxa-8-azabicyclo[3.2.1]oct-8-yl)-1,3,5-triazin-2-yl]phenyl}urea]		2.7	0.459	42.7	< 30	< 30
CN(C)CCN(C)C(=O)c1ccc(NC(=O)Nc2ccc(-c3nc(N4CCOCC4)nc(N4C5CCC4COC5)n3)cc2)cc1 [Example 698, N-[2-(dimethylamino)ethyl]-N-methyl-4-[({4-[4-morpholin-4-yl-6-(3-oxa-8-azabicyclo[3.2.1]oct-8-yl)-1,3,5-triazin-2-yl]phenyl}carbamoyl)amino]benzamide]	< 3	2.7	0.302	44.7	6	
O=C(Nc1ccc(C(=O)NCCO)cc1)Nc1ccc(-c2nc(N3CCOCC3)nc(N3C4CCC3COC4)n2)cc1 [Example 699, N-(2-hydroxyethyl)-4-[({4-[4-morpholin-4-yl-6-(3-oxa-8-azabicyclo[3.2.1]oct-8-yl)-1,3,5-triazin-2-yl]phenyl}carbamoyl)amino]benzamide]	36	5	0.3	62.5	40	
CN(C)CCCNC(=O)c1ccc(NC(=O)Nc2ccc(-c3nc(N4CCOCC4)nc(N4C5CCC4COC5)n3)cc2)cc1 [Example 700, N-[3-(dimethylamino)propyl]-4-[({4-[4-morpholin-4-yl-6-(3-oxa-8-azabicyclo[3.2.1]oct-8-yl)-1,3,5-triazin-2-yl]phenyl}carbamoyl)amino]benzamide]	5	2.5	0.53	41.5	20	
CNCCN(C)C(=O)c1ccc(NC(=O)Nc2ccc(-c3nc(N4CCOCC4)nc(N4C5CCC4COC5)n3)cc2)cc1 [Example 701, N-methyl-N-[2-(methylamino)ethyl]-4-[({4-[4-morpholin-4-yl-6-(3-oxa-8-azabicyclo[3.2.1]oct-8-yl)-1,3,5-triazin-2-yl]phenyl}carbamoyl)amino]benzamide]	< 30	2	0.36	25	< 30	
CC1CN(C(=O)c2ccc(NC(=O)Nc3ccc(-c4nc(N5CCOCC5)nc(N5C6CCC5COC6)n4)cc3)cc2)CC(C)N1 (stereo not shown) [Example 703, 1-{4-[(3,5-dimethylpiperazin-1-yl)carbonyl]phenyl}-3-{4-[4-morpholin-4-yl-6-(3-oxa-8-azabicyclo[3.2.1]oct-8-yl)-1,3,5-triazin-2-yl]phenyl}urea]		1.5	0.51	23.5	13	< 3
O=C(Nc1ccc(-c2nc(N3CCOCC3)nc(N3C4CCC3COC4)n2)cc1)Nc1ccnc(Cl)c1 [Example 746, 1-(2-chloropyridin-4-yl)-3-{4-[4-morpholin-4-yl-6-(3-oxa-8-azabicyclo[3.2.1]oct-8-yl)-1,3,5-triazin-2-yl]phenyl}urea]	93	23.5	1.27	99	118	
O=C(Nc1ccc(-c2nc(N3CCOCC3)nc(N3C4CCC3COC4)n2)cc1)Nc1ccc(-c2nc(N3CCOCC3)nc(N3C4CCC3COC4)n2)cc1 [Example 751, 1,3-bis{4-[4-morpholin-4-yl-6-(3-oxa-8-azabicyclo[3.2.1]oct-8-yl)-1,3,5-triazin-2-yl]phenyl}urea]		143	3	404	238	144
CN(C)C1CCN(C(=O)c2ccc(NC(=O)Nc3ccc(-c4nc(N5CCOCC5)nc(N5C6CCC5COC6)n4)cc3)cc2)CC1 [Example 752, 1-(4-{[4-(dimethylamino)piperidin-1-yl]carbonyl}phenyl)-3-{4-[4-morpholin-4-yl-6-(3-oxa-8-azabicyclo[3.2.1]oct-8-yl)-1,3,5-triazin-2-yl]phenyl}urea]		1.2	0.29	18.5	6	< 3
CN1CCN(CCNC(=O)c2ccc(NC(=O)Nc3ccc(-c4nc(N5CCOCC5)nc(N5C6CCC5COC6)n4)cc3)cc2)CC1 [Example 753, N-[2-(4-methylpiperazin-1-yl)ethyl]-4-[({4-[4-morpholin-4-yl-6-(3-oxa-8-azabicyclo[3.2.1]oct-8-yl)-1,3,5-triazin-2-yl]phenyl}carbamoyl)amino]benzamide]	4	2	0.315	31	14	
CC(C)N1CCN(C(=O)c2ccc(NC(=O)Nc3ccc(-c4nc(N5CCOCC5)nc(N5C6CCC5COC6)n4)cc3)cc2)CC1 [Example 754, 1-{4-[(4-isopropylpiperazin-1-yl)carbonyl]phenyl}-3-{4-[4-morpholin-4-yl-6-(3-oxa-8-azabicyclo[3.2.1]oct-8-yl)-1,3,5-triazin-2-yl]phenyl}urea]		3	0.327	28	70.8	31.3
O=C(Nc1ccc(C(=O)N2CCN(C3CCCC3)CC2)cc1)Nc1ccc(-c2nc(N3CCOCC3)nc(N3C4CCC3COC4)n2)cc1 [Example 755, 1-{4-[(4-cyclopentylpiperazin-1-yl)carbonyl]phenyl}-3-{4-[4-morpholin-4-yl-6-(3-oxa-8-azabicyclo[3.2.1]oct-8-yl)-1,3,5-triazin-2-yl]phenyl}urea]		2	0.57	26.5	13	3
O=C(Nc1ccc(C(=O)N2CCNCC2)cc1)Nc1ccc(-c2nc(N3CCOCC3)nc(N3C4CCC3COC4)n2)cc1 [Example 756, 1-{4-[4-morpholin-4-yl-6-(3-oxa-8-azabicyclo[3.2.1]oct-8-yl)-1,3,5-triazin-2-yl]phenyl}-3-[4-(piperazin-1-ylcarbonyl)phenyl]urea]		0.5	0.2	7	12	< 3
O=C(Nc1ccc(C(=O)N2CCC(N3CCOCC3)CC2)cc1)Nc1ccc(-c2nc(N3CCOCC3)nc(N3C4CCC3COC4)n2)cc1 [Example 757, 1-{4-[4-morpholin-4-yl-6-(3-oxa-8-azabicyclo[3.2.1]oct-8-yl)-1,3,5-triazin-2-yl]phenyl}-3-{4-[(4-morpholin-4-ylpiperidin-1-yl)carbonyl]phenyl}urea]		5.5	0.28	37.5	6	< 3
O=C(Nc1ccc(C(=O)NCCN2CCCC2)cc1)Nc1ccc(-c2nc(N3CCOCC3)nc(N3C4CCC3COC4)n2)cc1 [Example 758, 4-[({4-[4-morpholin-4-yl-6-(3-oxa-8-azabicyclo[3.2.1]oct-8-yl)-1,3,5-triazin-2-yl]phenyl}carbamoyl)amino]-N-(2-pyrrolidin-1-ylethyl)benzamide]	3	2	0.17	16	14	
